Like-named read-outs stand apart in the source and are kept apart here.
Target: T1, USP7 (Homo sapiens, UniProt Q93009)
T1 construct: USP7, construct USP7 (208-1102) 6*His, Viva Biotech; 6xHis (C); purchased Viva Biotech
Assay: USP7 Assay A (Ubitquin-Rhodamine 110 Assay)
Type: biochemical
Conditions: read-out: USP7_IC50
Summary of the method: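 Enzyme and compound sat together for 30 min before Ub-Rh110 was added, in buffer of 20 mM Tris-HCl (pH 8.0), 1 mM GSH, 0.03% BGG and 0.01% Triton X-100.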

[1] = USP7 activity in USP7 assay A and B (table does not say which assay per compound)
[2] = USP7 assay A and B (table does not say which assay per compound)

T1 sequence (Q93009 208-1102): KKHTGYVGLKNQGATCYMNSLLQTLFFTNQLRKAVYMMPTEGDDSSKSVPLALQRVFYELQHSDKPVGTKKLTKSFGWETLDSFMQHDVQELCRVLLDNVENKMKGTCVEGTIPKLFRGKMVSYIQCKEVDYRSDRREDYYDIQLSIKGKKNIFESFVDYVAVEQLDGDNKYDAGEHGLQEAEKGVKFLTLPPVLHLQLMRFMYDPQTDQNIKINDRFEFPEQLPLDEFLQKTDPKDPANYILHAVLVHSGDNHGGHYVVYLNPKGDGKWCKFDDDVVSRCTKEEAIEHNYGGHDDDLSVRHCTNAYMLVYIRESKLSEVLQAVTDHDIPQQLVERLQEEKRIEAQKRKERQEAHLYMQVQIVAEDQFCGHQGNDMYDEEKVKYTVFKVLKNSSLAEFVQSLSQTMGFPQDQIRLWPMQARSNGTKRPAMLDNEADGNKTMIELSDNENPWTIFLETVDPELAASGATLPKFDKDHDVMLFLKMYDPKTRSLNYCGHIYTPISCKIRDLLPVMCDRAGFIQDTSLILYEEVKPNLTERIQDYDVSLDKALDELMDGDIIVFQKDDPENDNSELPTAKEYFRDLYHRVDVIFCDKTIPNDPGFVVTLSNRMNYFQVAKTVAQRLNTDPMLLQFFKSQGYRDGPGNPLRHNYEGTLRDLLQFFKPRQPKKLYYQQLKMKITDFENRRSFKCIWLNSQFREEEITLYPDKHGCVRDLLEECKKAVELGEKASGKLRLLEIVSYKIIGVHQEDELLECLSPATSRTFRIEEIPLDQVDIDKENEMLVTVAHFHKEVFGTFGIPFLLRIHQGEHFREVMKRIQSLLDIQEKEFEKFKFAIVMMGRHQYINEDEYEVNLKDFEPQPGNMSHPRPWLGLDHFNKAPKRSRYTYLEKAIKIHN

Compound | IC50 [1] [nM] | IC50 [2] [nM]
CC1(C(=O)N2CCC(O)(Cn3cnc4c(cnn4-c4ccc(N5CC(C6CCOCC6)C5)cc4)c3=O)CC2)CC1 [Compound I-1570] | 200 to 1000 | 
Cc1ccc(-n2ncc3c(=O)n(CC4(O)CCN(C(=O)c5ccc(Oc6ccccn6)cc5)CC4)cnc32)cc1 [Compound I-1510] |  | 200 to 1000
CC(O)(c1ccc(C(=O)N2CCC(O)(Cn3cnc4c(cnn4-c4ccccc4)c3=O)CC2)cc1)C(F)(F)F (stereo not drawn) [Compound I-291] |  | 1000 to 10000
O=C(c1ccccc1)N1CCC(O)(Cn2cnc3c(cnn3-c3cccc(O)c3)c2=O)CC1 [Compound I-19] |  | 1000 to 10000
O=C(c1ccc(F)cc1)N1CCC(O)(Cn2cnc3c(cnn3-c3ccc(OCC4CCOCC4)cc3)c2=O)CC1 [Compound I-1324] |  | 1000 to 10000
Cc1cnn([C@@H](CC(=O)N2CCC(O)(Cn3cnc4c(cnn4-c4ccc(F)cc4)c3=O)CC2)C(F)F)c1 (single isomer, unassigned) [Compound I-736] | > 10000 | 
O=C(c1ccc(F)cc1)N1CCC(O)(Cn2cnc3c(cnn3-c3ccc(F)cc3)c2=O)CC1 [Compound I-268] |  | 1000 to 10000
C[C@H](CC(=O)N1CCC(O)(Cn2cnc3c(cnn3-c3cccc(C(F)(F)F)c3)c2=O)CC1)c1ccccc1 [Compound I-67] |  | < 200
COc1ccc(OC)c(C(=O)N2CCC(O)(Cn3cnc4c(cnn4-c4ccccc4)c3=O)CC2)c1 [Compound I-221] |  | 1000 to 10000
CCc1ccc(CN(C)Cc2ccc(-n3ncc4c(=O)n(CC5(O)CCN(C(=O)C6CC6)CC5)cnc43)cc2)cn1 [Compound I-440] |  | 1000 to 10000
Cc1ncc(C(=O)N2CCC(O)(Cn3cnc4c(cnn4-c4ccc(OCC5(F)CCC5)cc4)c3=O)CC2)o1 [Compound I-1135] | < 200 | 
O=C(C1CCC(Oc2cnccn2)CC1)N1CCC(O)(Cn2cnc3c(cnn3-c3ccc(F)cc3)c2=O)CC1 (stereo not drawn) [Compound I-1113] | < 200 | 
O=C(C1CC1)N1CCC(O)(Cn2cnc3c(cnn3-c3ccc(N4CCCc5ccccc54)cc3)c2=O)CC1 [Compound I-1082] |  | 1000 to 10000
O=C(C1CC1)N1CCC(O)(Cn2cnc3c(cnn3-c3ccc(NCCN4CCCCC4)cc3)c2=O)CC1 [Compound I-1146] |  | 200 to 1000
O=C(C1CCC(Oc2ccccn2)CC1)N1CCC(O)(Cn2cnc3c(ccn3-c3ccc(F)cc3)c2=O)CC1 (stereo not drawn) [Compound I-1038] | < 200 | 
O=C(c1ccc(OC(F)F)cc1)N1CCC(O)(Cn2cnc3c(cnn3-c3ccc(F)c(CO)c3)c2=O)CC1 [Compound I-641] |  | 1000 to 10000
COc1cccc(-n2ncc3c(=O)n(CC4(O)CCN(C(=O)c5ccc(F)cc5)CC4)cnc32)c1 [Compound I-621] |  | 1000 to 10000
O=C(c1ccc(Oc2ccccn2)cc1)N1CCC(O)(Cn2cnc3c(cnn3-c3ccc(Cl)cc3)c2=O)CC1 [Compound I-1519] |  | 1000 to 10000

Source: US9902728B2, “Pyrrolo and pyrazolopyrimidines as ubiquitin-specific protease 7 inhibitors” (Forma Therapeutics, Inc., priority 2014, dated 2018)
